Literature values as cited in patent US20170210704A1, “DEUTERO-PHENFORMIN DERIVATIVES” (Enlibrium Inc, priority 2016, published 2017).

Legend:
[1] = patients treated for type 2 diabetes
[2] = tested on: cytochrome P450 2D6; settings: 2D6 polymorphisms in humans; essentially no metabolism in poor metabolizers

SMILES	risk of lactic acidosis [1]	metabolism in ultrarapid metabolizers relative to poor metabolizers [2]
CN(C)C(=N)N=C(N)N [metformin, Metformin]	0.1 events per 1,000 patient years	–
[H]/N=C(/N)N/C(=N/[H])NCCc1ccccc1 [phenformin, Phenformin]	0.6 events per 1,000 patient years	200 fold
